Test results published in US20190194209A1, “PYRAZOLE CARBOXAMIDE COMPOUNDS AND METHODS OF USE” (Genentech, Inc., priority 2014, published 2019).
Read-outs that look alike come from different tables or passages of the source.

Legend:
[1] = tested on: CD69 production by B lymphocytes in human whole blood activated with goat F(ab')2 anti-human IgM; experiment: CD69 Whole Blood Assay (Example 907); type: cell-based; conditions: Lymphocyte, read-out: CD69 Hu Blood FACS (IC70)
From the text: A CD69 Whole Blood Assay can be conducted on Formula I compounds to determine the ability of compounds to inhibit the production of CD69 by B lymphocytes in human whole blood activated by crosslinking surface IgM with goat F(ab′)2 anti-human IgM (Example 907). CD69 is a type II C-type lectin involved in lymphocyte migration and cytokine secretion. CD69 expression represents one of the earliest available indicators of leukocyte activation and its rapid induction occurs through transcriptional activation (Vazquez et al (2009) Jour. of Immunology Published Oct. 19, 2009, doi: 10.4049/jimmunol.0900839). Concentration-dependent inhibition of antigen receptor stimulation by selective Btk inhibitors induces cell surface expression of the lymphocyte activation marker CD69 (Honigberg et al (2010) Proc. Natl. Acad. Sci. 107(29):13075-13080). Thus, CD69 inhibition by selective Btk inhibitors may be correlated with therapeutic efficacy of certain B-cell disorders.
Human blood is obtained from healthy volunteers, with the following restrictions: 1 week drug-free, non-smokers. Blood (approximately 20 mls to test 8 compounds) is collected by venipuncture into Vacutainer® (Becton, Dickinson and Co.) tubes with sodium heparin.
Solutions of Formula I compounds at 10 mM in DMSO are diluted 1:10 in 100% DMSO, then are diluted by three-fold serial dilutions in 100% DMSO for a ten point dose-response curve. The compounds are further diluted 1:10 in PBS and then an aliquot of 5.5 μl of each compound is added in duplicate to a 2 ml 96-well plate; 5.5 μl of 10% DMSO in PBS is added as control and no-stimulus wells. Human whole blood—HWB (100 μl) is added to each well. After mixing the plates are incubated at 37° C., 5% CO2, 100% humidity for 30 minutes. Goat F(ab′)2 anti-human IgM (10 μl of a 500 μg/ml solution, 50 μg/ml final) is added to each well (except the no-stimulus wells) with mixing and the plates are incubated for an additional 20 hours. At the end of the 20 hour incubation, samples are incubated with fluorescent labeled antibodies for 30 minutes, at 37° C., 5% CO2, 100% humidity. Include induced control, unstained and single stains for compensation adjustments and initial voltage settings. Samples are then lysed with PharM Lyse™ (BD Biosciences Pharmingen) according to the manufacturer's instructions. Samples are then transferred to a 96 well plate suitable to be run on the BD Biosciences HTS 96 well system on the LSRII machine. Data acquired and Mean Fluorescence Intensity values were obtained using BD Biosciences DIVA Software. Results are initially analyzed by FACS analysis software (Flow Jo).

[2] = biological target: T1, full length human wildtype Btk (Homo sapiens, UniProt Q06187); experiment: Biochemical Btk Kinase Assay (Example 901); conditions: read-out: BTK LC3K (Ki)
T1 construct: V5 (C); 6xHis (C); made in house; host or cells: Sf9 cells (baculovirus, pFastBac)
Procedure: Formula I compounds were tested by a standard biochemical Btk, Kinase Assay (Example 901). A generalized procedure for a standard biochemical Btk, Kinase Assay that can be used to test Formula I compounds is as follows. A master mix minus Btk enzyme is prepared containing 1× Cell Signaling kinase buffer (25 mM Tris-HCl, pH 7.5, 5 mM beta-glycerophosphate, 2 mM dithiothreitol, 0.1 mM Na3VO4, 10 mM MgCl2), 0.5 μM Promega PTK Biotinylated peptide substrate 2, and 0.01% BSA. A master mix plus Btk enzyme is prepared containing 1× Cell Signaling kinase buffer, 0.5 μM (micromolar) PTK Biotinylated peptide substrate 2, 0.01% BSA, and 100 ng/well (0.06 mU/well) Btk enzyme. Btk enzyme is prepared as follows: full length human wildtype Btk (accession number NM-000061) with a C-terminal V5 and 6×His tag was subcloned into pFastBac® vector (Invitrogen/Life Technologies) for making baculovirus carrying this epitope-tagged Btk. Generation of baculovirus is done based on Invitrogen's instructions detailed in its published protocol “Bac-to-Bac Baculovirus Expression Systems” (Invitrogen/Life Technologies, Cat. Nos. 10359-016 and 10608-016). Passage 3 virus is used to infect Sf9 cells to overexpress the recombinant Btk protein. The Btk protein is then purified to homogeneity using Ni-NTA column. The purity of the final protein preparation is greater than 95% based on the sensitive Sypro-Ruby staining. A solution of 200 μM ATP is prepared in water and adjusted to pH 7.4 with 1N NaOH. A quantity of 1.25 μL (microliter) of compounds in 5% DMSO is transferred to a 96-well 2 area Costar polystyrene plate. Compounds are tested singly and with an 11-point dose-responsive curve (starting concentration is 10 μM; 1:2 dilution). A quantity of 18.75 μL of master mix minus enzyme (as a negative control) and master mix plus enzyme is transferred to appropriate wells in 96-well 2 area costar polystyrene plate. 5 μL of 200 μM ATP is added to that mixture in the 96-well 2 area Costar polystyrene plate for final ATP concentration of 40 μM. The reaction is allowed to incubate for 1 hour at room temperature. The reaction is stopped with Perkin Elmer 1× detection buffer containing 30 mM EDTA, 20 nM SA-APC, and 1 nM PT66 Ab. The plate is read using time-resolved fluorescence with a Perkin Elmer Envision using excitation filter 330 nm, emission filter 665 nm, and 2nd emission filter 615 nm. IC50 values are subsequently calculated. Alternatively, the Lanthascreen assay can be used to evaluate Btk activity through quantification of its phosphorylated peptide product. The FRET (Fluorescence Resonance Energy Transfer) that occurs between the fluorescein on the peptide product and the terbium on the detection antibody decreases with the addition of inhibitors of Btk that reduce the phosphorylation of the peptide. In a final reaction volume of 25 μL (microliters), Btk (h) (0.1 ng/25 μl reaction) is incubated with 50 mM Hepes pH 7.5, 10 mM MgCl2, 2 mM MnCl2, 2 mM DTT, 0.2 mM NaVO4, 0.01% BSA, and 0.4 uM fluorescein poly-GAT. The reaction is initiated by the addition of ATP to 25 μM (micromolar) the Km of ATP. After incubation for 60 minutes at room temperature, the reaction is stopped by the addition of a final concentration of 2 nM Tb-PY20 detection antibody in 60 mM EDTA for 30 minutes at room temperature. Detection is determined on a Perkin Elmer Envision with 340 nm excitation and emission at 495 nm and 520 nm. Exemplary Btk inhibition […] values are in Table 1.

[3] = human whole blood, anti-IgM stimulated, 20 hour incubation, CD20 positive cells, FACS

T1 sequence (Q06187 whole entry): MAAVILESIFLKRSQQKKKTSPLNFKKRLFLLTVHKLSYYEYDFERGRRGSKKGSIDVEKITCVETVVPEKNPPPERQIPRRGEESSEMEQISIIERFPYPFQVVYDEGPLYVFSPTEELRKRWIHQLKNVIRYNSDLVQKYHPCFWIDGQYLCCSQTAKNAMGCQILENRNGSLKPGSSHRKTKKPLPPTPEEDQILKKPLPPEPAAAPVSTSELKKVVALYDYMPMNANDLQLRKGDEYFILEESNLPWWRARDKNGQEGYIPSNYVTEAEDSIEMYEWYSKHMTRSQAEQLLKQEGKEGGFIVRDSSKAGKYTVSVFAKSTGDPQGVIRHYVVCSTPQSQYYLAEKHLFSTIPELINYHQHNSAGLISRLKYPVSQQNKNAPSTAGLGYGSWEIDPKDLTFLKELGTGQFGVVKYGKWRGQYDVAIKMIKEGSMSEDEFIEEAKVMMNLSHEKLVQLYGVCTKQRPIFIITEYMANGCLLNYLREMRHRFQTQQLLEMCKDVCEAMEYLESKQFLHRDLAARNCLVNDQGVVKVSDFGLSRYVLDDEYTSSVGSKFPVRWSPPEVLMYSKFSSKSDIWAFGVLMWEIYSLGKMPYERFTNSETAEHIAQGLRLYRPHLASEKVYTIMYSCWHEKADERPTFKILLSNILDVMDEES

| Structure (SMILES) | IC70 [1, 3] [µM] | Ki [2] [µM] | IC70 ([1]; Homo sapiens, 20 h) [µM] |
| --- | --- | --- | --- |
| CC1(C)Cc2cc3n(c2C1)CCN(c1nccc(-n2cc(NC(=O)C4CC4)c(C(N)=O)n2)c1CO)C3=O [Example 109, 4-(cyclopropanecarbonylamino)-1-[2-(7,7-dimethyl-4-oxo-1,2,6,8-tetrahydrocyclopenta[3,4]pyrrolo[3,5-b]pyrazin-3-yl)-3-(hydroxymethyl)-4-pyridyl]pyrazole-3-carboxamide] | 0.0474 | 0.000924 | – |
| CC1(C)Cc2cc3n(c2C1)CCN(c1nccc(-n2cc(C(N)=O)c(NC(=O)[C@@H]4C[C@@H]4F)n2)c1CO)C3=O [Example 112, 1-[2-(7,7-dimethyl-4-oxo-1,2,6,8-tetrahydrocyclopenta[3,4]pyrrolo[3,5-b]pyrazin-3-yl)-3-(hydroxymethyl)-4-pyridyl]-3-[(2-fluorocyclopropanecarbonyl)amino]pyrazole-4-carboxamide] | 0.1 | 0.000436 | – |
| C[C@H]1CN(C2COC2)CCN1c1ccc(Nc2cn(-c3ccnc(N4CCn5c(cc6c5CC(C)(C)C6)C4=O)c3CO)nc2C(N)=O)nc1 [Example 126, 1-[2-(7,7-dimethyl-4-oxo-1,2,6,8-tetrahydrocyclopenta[3,4]pyrrolo[3,5-b]pyrazin-3-yl)-3-(hydroxymethyl)-4-pyridyl]-4-[[5-[(2S)-2-methyl-4-(oxetan-3-yl)piperazin-1-yl]-2-pyridyl]amino]pyrazole-3-carboxamide] | 0.0064 | 0.000156 | – |
| CC(C)(C)c1cc(F)c2c(=O)n(-c3nccc(-n4cc(C(N)=O)c(Nc5ccccn5)n4)c3CO)ncc2c1 [Example 106, 1-[2-(6-tert-butyl-8-fluoro-1-oxo-phthalazin-2-yl)-3-(hydroxymethyl)-4-pyridyl]-3-(2-pyridylamino)pyrazole-4-carboxamide] | – | 0.00034 | 0.132 |
| Cn1cc(-c2nn(-c3ccnc(-n4ncc5cc(C(C)(C)C)cc(F)c5c4=O)c3CO)cc2C(N)=O)cn1 [Example 115, 1-[2-(6-tert-butyl-8-fluoro-1-oxo-phthalazin-2-yl)-3-(hydroxymethyl)-4-pyridyl]-3-(1-methylpyrazol-4-yl)pyrazole-4-carboxamide] | 0.268 | 0.000997 | – |
| Cn1cc(Nc2nn(-c3cccc(N4CCn5c(cc6c5CC(C)(C)C6)C4=O)c3CO)cc2C(N)=O)nn1 [Example 105, 1-[3-(7,7-dimethyl-4-oxo-1,2,6,8-tetrahydrocyclopenta[3,4]pyrrole[3,5-b]pyrazin-3-yl)-2-(hydroxymethyl)phenyl]-3-[(1-methyltriazol-4-yl)amino]pyrazole-4-carboxamide] | 0.0323 | 0.000326 | – |
| CC1(C)Cc2cc3n(c2C1)CCN(c1nccc(-n2cc(C(N)=O)c(Nc4ccccn4)n2)c1CO)C3=O [Example 103, 1-[2-(7,7-dimethyl-4-oxo-1,2,6,8-tetrahydrocyclopenta[3,4]pyrrole[3,5-b]pyrazin-3-yl)-3-(hydroxymethyl)-4-pyridyl]-3-(2-pyridylamino)pyrazole-4-carboxamide] | 0.127 | 0.000565 | – |
| CCC(=O)Nc1nn(-c2ccnc(N3CCn4c(cc5c4CC(C)(C)C5)C3=O)c2CO)cc1C(N)=O [Example 123, 1-[2-(7,7-dimethyl-4-oxo-1,2,6,8-tetrahydrocyclopenta[3,4]pyrrolo[3,5-b]pyrazin-3-yl)-3-(hydroxymethyl)-4-pyridyl]-3-(propanoylamino)pyrazole-4-carboxamide] | 0.685 | 0.0321 | – |
| Cc1nn(C)cc1-c1nn(-c2ccnc(-n3ncc4cc(C(C)(C)C)cc(F)c4c3=O)c2CO)cc1C(N)=O [Example 122, 1-[2-(6-tert-butyl-8-fluoro-1-oxo-phthalazin-2-yl)-3-(hydroxymethyl)-4-pyridyl]-3-(1,3-dimethylpyrazol-4-yl)pyrazole-4-carboxamide] | 3.3 | 0.0086 | – |
| CC(C)(C)c1cc(F)c2c(=O)n(-c3nccc(-n4cc(C(N)=O)c(-c5cnn(C(F)F)c5)n4)c3CO)ncc2c1 [Example 121, 1-[2-(6-tert-butyl-8-fluoro-1-oxo-phthalazin-2-yl)-3-(hydroxymethyl)-4-pyridyl]-3-[1-(difluoromethyl)pyrazol-4-yl]pyrazole-4-carboxamide] | 1.4 | 0.00115 | – |
| CC1(C)Cc2cc3n(c2C1)CCN(c1nccc(-n2cc(C(N)=O)c(NC(=O)C4CC4)n2)c1CO)C3=O [Example 107, 3-(cyclopropanecarbonylamino)-1-[2-(7,7-dimethyl-4-oxo-1,2,6,8-tetrahydrocyclopenta[3,4]pyrrolo[3,5-b]pyrazin-3-yl)-3-(hydroxymethyl)-4-pyridyl]pyrazole-4-carboxamide] | 0.0521 | 0.000615 | – |
| CC1(C)Cc2cc3n(c2C1)CCN(c1nccc(-n2cc(C(N)=O)c(Nc4ccccc4)n2)c1CO)C3=O [Example 101, 3-anilino-1-[2-(7,7-dimethyl-4-oxo-1,2,6,8-tetrahydrocyclopenta[3,4]pyrrolo[3,5-b]pyrazin-3-yl)-3-(hydroxymethyl)-4-pyridyl]pyrazole-4-carboxamide] | 0.0369 | 0.0024 | – |
| CC1(C)Cc2cc3n(c2C1)CCN(c1cccc(-n2cc(C(N)=O)c(Nc4ccccn4)n2)c1CO)C3=O [Example 102, 1-[3-(7,7-dimethyl-4-oxo-1,2,6,8-tetrahydrocyclopenta[3,4]pyrrolo[3,5-b]pyrazin-3-yl)-2-(hydroxymethyl)phenyl]-3-(2-pyridylamino)pyrazole-4-carboxamide] | 0.166 | 0.00101 | – |
